# Measured values reported in publication PMC11234460, “In Silico Discovery of Stapled Peptide Inhibitor Targeting the Nur77‐PPARγ Interaction and Its Anti‐Breast‐Cancer Efficacy” (Advanced Science, 2024).
# Where a SMILES comes first, the peptide text is derived from it. Bridges are numbered along the chain shown (N, C = ends). [ ]: non-standard residue; d: D form. S5 = C=CCCC[C@](C)(N)C(=O)O
# Columns and labels:
# [1] = system: MDA-MB-231-GFP tumor tissue; assay: Transcriptome analysis of xenograft tumor tissue; format: in vivo, mouse; conditions: 10 mg group
# Procedure: To establish the bone metastasis tumor model, 1×10^5 cells were injected into the left ventricle of each mouse (7–8 weeks old), and surgery was monitored using a cardiac ultrasound instrument. The mice were randomly divided into three groups and treated with PBS (control group, n = 6), 5 mg kg^−1 ST‐CY14 (n = 6), and 10 mg kg^−1 ST‐CY14 (n = 6) Tumor cell metastasis was monitored using an in vivo imaging instrument (IVIS Spectrum, PerkinElmer, USA). by intraperitoneal injection of 20 mg kg^−1 D‐luciferin. The mice were treated with ST‐CY14 via intravenous injection using a 100 µL PBS solution every 2 days starting on the designated day after tumor cell injection. Bone tissue with MDA‐BoM‐1833 cell metastasis was obtained and stained for TRAP. The mice sera were collected and analyzed for BSP and β‐CTx levels using ELISA (Lengton, BPE10823, BPE10438). For the orthotopic xenograft tumor model, 3×10^6 cells were injected into the fourth pair of breast pads on the left side of the mouse (4–5 weeks old). The mice were treated with ST‐CY14 every two days once the tumor volume reached 30–50 mm^3, with the same groups as in the bone metastasis tumor model. The tumors were collected and stained for H&E, Ki‐67, and TUNEL assays, which were conducted by Wuhan Servicebio Technology Co., Ltd. Major organs (heart, liver, spleen, lung, and kidney) were also collected for H&E analysis by Wuhan Servicebio Technology Co., Ltd. The Transcriptome and LC/MS targeted lipid metabolome were sequenced by OE Biotech, Inc., Shanghai, China. To evaluate the efficacy of Csn‐B in inhibiting breast cancer bone metastasis, an animal model was established as described above. The mice were randomly divided into three groups and treated with PBS (control group, n = 6), 10 mg kg^−1 ST‐CY14 (n = 6) in 100 µL PBS solution, and 5 mg kg^−1 ST‐CY14 (n = 6) in a 100 µL mixed solution (5% DMSO, 20% PEG 400, 5% Tween 80, and 70% normal saline) via intravenous injection every 2 days starting on the designated day after tumor cell injection.
# MCF-10A cells = conditions: 24 h, CCK-8
# Procedure: MCF7, MDA‐MB‐231, and MDA‐BoM‐1833 cells (5000 cells/well) were seeded in 96‐well plates and cultured overnight at 37°C and 5% CO2. The cells were then treated with fresh basic medium containing various concentrations (1/2/5/10/20 × 10^−6 M) of compounds. After 24 h of incubation, the cells were incubated with a basic medium containing 10% Cell Counting Kit‐8 (Dojindo, CK‐04) for 2 h. Cell viability was evaluated by measuring the absorbance at 450 nm. The formula used was [(As‐Ab)/(Ac‐Ab)] × 100%, where as represents the absorbance of the drug‐treated group, Ac represents the absorbance of the control group treated with medium, and Ab represents the absorbance of the blank control containing only medium.
# MCF7 cells [2] = assay: Energy metabolism analysis (Seahorse OCR); format: cell-based, human; conditions: MCF7, 24 h treatment, n = 3
# Procedure: Cell energy metabolism analysis was conducted using a Seahorse cell energy metabolism analyzer (Agilent, USA). In brief, 8000 cells were seeded per well in a 96‐well XF96 plate (Agilent, 103794‐100) and cultured overnight. Subsequently, the cells were treated with various concentrations of peptides for 24 h. To prepare for metabolic stress injections, cartridge plates (Agilent, w15023) were hydrated with H2O for at least 12 h at 37 °C before the assay. 1 h before detection, the medium in each well was replaced with 180 µL XF calibrant solution (Agilent, 100840‐000), Afterward, the cell plate was replaced with 180 µL XF DMEM (Agilent, 103575‐100) with glucose (1 × 10^−2 M) (Agilent, 103577‐100), pyruvate (1 × 10^−3 M) (Agilent, 103578‐100) and glutamine (2 × 10^−3 M) (Agilent, 103579‐100) and the mixture was incubated in a CO2‐free incubator at 37 °C for 1 h. Then, 20 µL basic medium, 22 µL 1.5 × 10^−4 M oligomycin, 25 µL 1.5 × 10^−4 M FCCP, and 27 µL 5 × 10^−5 M ROT/AA (Agilent, 10315‐100) were added to wells A, B, C, and D, respectively, of the cartridge plates. The assay was carried out according to the manufacturer's instructions, and the OCR was reported in picomoles per min. The results were normalized to the cell number determined by the CCK‐8 assay.
# MCF7 cells [3] = assay: Western blot of Nur77, CD36 and FABP4; format: cell-based, human
# Procedure: MCF7 and MDA‐MB‐231 cells were treated with various concentrations of peptide. The cells were then collected and lysed in NP40 lysis buffer. Total protein was quantified using a BCA assay kit (Beyotime, P0010S). The proteins were separated by SDS‐PAGE and transferred onto a PVDF membrane. The PVDF membrane was blocked in TBST containing 5% non‐fat milk, and then incubated with primary antibodies overnight at 4 °C. Subsequently, membranes were incubated with horseradish peroxidase‐conjugated antirabbit or antimouse IgG secondary antibody for 1 h at room temperature. The membranes were analyzed by a Tanon‐5200 Multi Gel Imaging Analysis System (Tanon) and quantified by ImageJ software.
compound,measurement,setting,value
C[C@@H](O)[C@@H]1NC(=O)[C@H](CCCNC(=N)N)NC(=O)[C@H](CCCNC(=N)N)NC(=O)[C@@](C)(NC(=O)[C@H](Cc2ccccc2)NC(=O)CNC(=O)[C@H](CCCCN)NC(=O)[C@H](CS)NC(=O)CNC(=O)[C@H](CCC(=O)O)NC(=O)[C@@H](N)CS)CCCC=CCCC[C@@](C)(C(=O)N[C@@H](CCCNC(=N)N)C(=O)N[C@@H](Cc2ccc(O)cc2)C(=O)N[C@@H](Cc2ccc(O)cc2)C(=O)NCC(=O)N[C@@H](CCCNC(=N)N)C(=O)N[C@@H](CCCCN)C(=O)N[C@@H](CCCCN)C(=O)N[C@@H](CCCNC(=N)N)C(=O)N[C@@H](CCCNC(=N)N)C(=O)N[C@@H](CCC(N)=O)C(=O)N[C@@H](CCCNC(=N)N)C(=O)N[C@@H](CCCNC(=N)N)C(=O)N[C@@H](CCCNC(=N)N)C(N)=O)NC1=O [ST-CY14] (H-CEGCKGF[S5]RRT[S5]RYYGRKKRRQRRR-NH2; staple 8-12),AGT expression in tumor tissue (transcriptome),[1]; sample 1,0.07902
same,ANGPTL4 expression in tumor tissue (transcriptome),[1]; sample 1,3.636
same,CD36 expression in tumor tissue (transcriptome),[1]; sample 1,0
same,CD74 expression in tumor tissue (transcriptome),[1]; sample 1,0.3461
same,CNR1 expression in tumor tissue (transcriptome),[1]; sample 1,0.02158
same,CYP3A5 expression in tumor tissue (transcriptome),[1]; sample 1,0.3686
same,FABP4 expression in tumor tissue (transcriptome),[1]; sample 1,0.03159
same,INSL5 expression in tumor tissue (transcriptome),[1]; sample 1,0
same,ITGAL expression in tumor tissue (transcriptome),[1]; sample 1,0.005294
same,OAS1 expression in tumor tissue (transcriptome),[1]; sample 1,0.1526
same,OLAH expression in tumor tissue (transcriptome),[1]; sample 1,0.7465
same,PLIN1 expression in tumor tissue (transcriptome),[1]; sample 1,0.1271
same,POLR2J3 expression in tumor tissue (transcriptome),[1]; sample 1,0.1542
same,PTPRC expression in tumor tissue (transcriptome),[1]; sample 1,0.09088
same,PYY expression in tumor tissue (transcriptome),[1]; sample 1,0.3061
same,RNF152 expression in tumor tissue (transcriptome),[1]; sample 1,0.2243
same,SLX1B expression in tumor tissue (transcriptome),[1]; sample 1,0.4199
same,UTS2B expression in tumor tissue (transcriptome),[1]; sample 1,0.2634
same,VAMP7 expression in tumor tissue (transcriptome),[1]; sample 1,0.394
same,ZNF404 expression in tumor tissue (transcriptome),[1]; sample 1,0.5136
same,ZNF429 expression in tumor tissue (transcriptome),[1]; sample 1,0.01399
same,AGT expression in tumor tissue (transcriptome),[1]; sample 2,0.282
same,ANGPTL4 expression in tumor tissue (transcriptome),[1]; sample 2,6.216
same,CD36 expression in tumor tissue (transcriptome),[1]; sample 2,0.00582
same,CD74 expression in tumor tissue (transcriptome),[1]; sample 2,0.2008
same,CNR1 expression in tumor tissue (transcriptome),[1]; sample 2,0.02567
same,CYP3A5 expression in tumor tissue (transcriptome),[1]; sample 2,0.2054
same,FABP4 expression in tumor tissue (transcriptome),[1]; sample 2,0
same,INSL5 expression in tumor tissue (transcriptome),[1]; sample 2,1.442
same,ITGAL expression in tumor tissue (transcriptome),[1]; sample 2,0
same,OAS1 expression in tumor tissue (transcriptome),[1]; sample 2,0.4448
same,OLAH expression in tumor tissue (transcriptome),[1]; sample 2,0.9577
same,PLIN1 expression in tumor tissue (transcriptome),[1]; sample 2,0.01163
same,POLR2J3 expression in tumor tissue (transcriptome),[1]; sample 2,0.3872
same,PTPRC expression in tumor tissue (transcriptome),[1]; sample 2,0.01081
same,PYY expression in tumor tissue (transcriptome),[1]; sample 2,1.722
same,RNF152 expression in tumor tissue (transcriptome),[1]; sample 2,0.1875
same,SLX1B expression in tumor tissue (transcriptome),[1]; sample 2,0.5583
same,UTS2B expression in tumor tissue (transcriptome),[1]; sample 2,0.2673
same,VAMP7 expression in tumor tissue (transcriptome),[1]; sample 2,0.4688
same,ZNF404 expression in tumor tissue (transcriptome),[1]; sample 2,0.685
same,ZNF429 expression in tumor tissue (transcriptome),[1]; sample 2,0.06657
same,AGT expression in tumor tissue (transcriptome),[1]; sample 3,0.02516
same,ANGPTL4 expression in tumor tissue (transcriptome),[1]; sample 3,3.683
same,CD36 expression in tumor tissue (transcriptome),[1]; sample 3,0.004672
same,CD74 expression in tumor tissue (transcriptome),[1]; sample 3,0.1451
same,CNR1 expression in tumor tissue (transcriptome),[1]; sample 3,0.07831
same,CYP3A5 expression in tumor tissue (transcriptome),[1]; sample 3,0.312
same,FABP4 expression in tumor tissue (transcriptome),[1]; sample 3,0.06034
same,INSL5 expression in tumor tissue (transcriptome),[1]; sample 3,0.1867
same,ITGAL expression in tumor tissue (transcriptome),[1]; sample 3,0
same,OAS1 expression in tumor tissue (transcriptome),[1]; sample 3,0.2478
same,OLAH expression in tumor tissue (transcriptome),[1]; sample 3,1.048
same,PLIN1 expression in tumor tissue (transcriptome),[1]; sample 3,0
same,POLR2J3 expression in tumor tissue (transcriptome),[1]; sample 3,0.1963
same,PTPRC expression in tumor tissue (transcriptome),[1]; sample 3,0.04774
same,PYY expression in tumor tissue (transcriptome),[1]; sample 3,0.5582
same,RNF152 expression in tumor tissue (transcriptome),[1]; sample 3,0.2258
same,SLX1B expression in tumor tissue (transcriptome),[1]; sample 3,0.5662
same,UTS2B expression in tumor tissue (transcriptome),[1]; sample 3,0.1702
same,VAMP7 expression in tumor tissue (transcriptome),[1]; sample 3,0.3548
same,ZNF404 expression in tumor tissue (transcriptome),[1]; sample 3,0.3567
same,ZNF429 expression in tumor tissue (transcriptome),[1]; sample 3,0.0501
same,Sensitivity of normal breast cells,MCF-10A cells,less sensitive to ST‐CY14
same,Oxygen consumption rate (OCR),MCF7 cells [2],significantly reduced
same,CD36 and FABP4 protein expression (immunoblot),MCF7 cells [3],inhibited the protein expression of CD36 and FABP4
same,Nur77 protein expression (immunoblot),MCF7 cells [3],increase in Nur77 expression
